pIC50: −log10 of the molar value. Counter-ions that a name gives are not always drawn. Like-named read-outs stand apart in the source and are kept apart here.
Experiments:
CCRF-CEM lymphoblasts [1] = experiment: BrDU incorporation analysis (DNA synthesis); format: cell-based, human; conditions: 24 h incubation
Experimental: Cells were cultivated as in the method above and pulse-labelled with 10 μM 5-bromo-2-deoxyuridine (BrDU) for 30 min before collection to the test tubes. The cells were washed with cold 1 × PBS and fixed in ice-cold 70% ethanol. Before analysis, they were washed with 1 × PBS and incubated in 2M HCl for 30 min at room temperature. Following neutralization with 0.1M Na2B4O7 (borax), the cells were washed with 0.5% Tween-20 and 1% BSA in 1 × PBS. The cell pellets were stained using a primary anti-BrdU antibody (Exbio, Vestec, Czech Republic) for 30 min at room temperature and a secondary anti-mouse-FITC antibody (Sigma). The samples were then incubated with propidium iodide (0.1 mg mL^−1), treated with RNase A (0.5 mg mL^−1) for 1 h at room temperature in the dark and analysed as above.

CCRF-CEM lymphoblasts [2] = experiment: BrU incorporation analysis (RNA synthesis); format: cell-based, human; conditions: 24 h, 5 × IC50 (high concentration)
CCRF-CEM = experiment: MTS cytotoxicity assay, CCRF-CEM; format: cell-based; conditions: Homo sapiens, 72 h, 3-day incubation
Description: (§1) All cells (if not indicated otherwise) were purchased from the American Tissue Culture Collection (ATCC; Manassas, VA, USA). The highly chemosensitive CCRF-CEM line is derived from T lymphoblastic leukaemia, K562 represent cells of chronic myelogenous leukaemia. Colorectal adenocarcinoma HCT116 cell line and its p53 gene knockout counterpart (HCT116p53−/−, Horizon Discovery Ltd., Cambridge, UK) were used as models to assess the impact of p53 deficiency on cell line sensitivity. A549 cells are derived from lung adenocarcinoma and U2OS from human osteosarcoma. CEM-DNR and K562-Tax are well-characterized daunorubicin and paclitaxel-resistant sublines of CCRF-CEM and K562. The CEM-DNR resistant cells overexpress the P-glycoprotein and LRP protein, the K562-Tax overexpress P-glycoprotein but is losing the expression of LRP, which is present at parental K562 cell line. P-glycoprotein belongs to the ABC transporters’ family and is involved in the primary and acquired multidrug resistance phenomenon by the efflux of toxic compounds, LRP protein is involved in the lysosomal degradation. MRC-5 and BJ cell lines were used as a non-tumour control and represent human fibroblasts. The cells were maintained in Nunc/Corning 80 cm^2 plastic tissue culture flasks and cultured in cell culture medium according to ATCC or Horizon recommendations (DMEM/RPMI 1640 with 5 g/L-glucose, 2 mM glutamine, 100 U/mL penicillin, […] streptomycin, 10% fetal calf serum, and NaHCO3).
(§2) To perform the cytotoxicity MTS assay, cell suspensions were prepared and diluted according to the cell type and the expected target cell density (25,000–35,000 cells/mL) based on cell growth characteristics. Cells were added by an automatic pipettor (30 μL) into 384 well microtiter plates. All tested compounds were dissolved in 100% DMSO and four-fold dilutions of the intended test concentration were added in 0.15 μL aliquots at time zero to the microtiter plate wells by the echo-acoustic liquid handler Echo550 (Labcyte, San Jose, CA, USA). The experiments were performed in technical duplicates and at least three biological replicates. The cells were incubated with the tested compounds for 72 h at 37 °C, in a 5% CO2 atmosphere at 99% humidity. At the end of the incubation period, the cells were assayed by using the MTS test. Aliquots (5 µL) of the MTS stock solution were pipetted into each well and incubated for an additional 1–4 h. After this incubation period, the optical density (OD) was measured at 490 nm with an Envision microplate reader (Perkin Elmer, Waltham, Massachusetts, USA). Tumour cell survival (TCS) was calculated using the following equation: TCS = (ODdrug-exposed well/mean ODcontrol wells) × 100%.

HCT116 = experiment: MTS cytotoxicity assay, HCT116; format: cell-based; conditions: Homo sapiens, HCT-116, 72 h, 3-day incubation
Description: as §1, §2

K562-Tax = experiment: MTS cytotoxicity assay, K562-Tax; format: cell-based; conditions: Homo sapiens, 72 h, K562-Tax (paclitaxel-resistant), 3-day incubation
Description: as §1, §2

A549 = experiment: MTS cytotoxicity assay, A549; format: cell-based; conditions: Homo sapiens, 72 h, 3-day incubation
Description: as §1, §2

CEM-DNR = experiment: MTS cytotoxicity assay, CEM-DNR; format: cell-based; conditions: Homo sapiens, 72 h, CEM-DNR (daunorubicin resistant), 3-day incubation
Description: as §1, §2

BJ = experiment: MTS cytotoxicity assay, BJ; format: cell-based; conditions: Homo sapiens, 72 h, BJ normal fibroblasts, 3-day incubation
Description: as §1, §2

MRC-5 = experiment: MTS cytotoxicity assay, MRC-5; format: cell-based; conditions: Homo sapiens, MRC5, 72 h, MRC-5 normal fibroblasts, 3-day incubation
Description: as §1, §2

[3] = test system: CA-SP1 processing of HIV-1 Gag polyprotein; experiment: Western blot of released virions with anti-HIV-1 CA antibody; format: cell-based
in vitro = conditions: human
K562 = experiment: MTS cytotoxicity assay, K562; format: cell-based; conditions: Homo sapiens, 72 h, 3-day incubation
Description: as §1, §2

HCT116p53−/− = experiment: MTS cytotoxicity assay, HCT116p53−/−; format: cell-based; conditions: Homo sapiens, HCT116-p53-null, 72 h, HCT116p53−/− (null p53 gene), 3-day incubation
Description: as §1, §2

U2OS = experiment: MTS cytotoxicity assay, U2OS; format: cell-based; conditions: Homo sapiens, 72 h, 3-day incubation
Description: as §1, §2

[4] = test system: VSV-G pseudotyped HIV-1 particles; experiment: microbe, parasite or virus in culture; format: cell-based; conditions: read-out: IC50i (50% infection inhibition)
U2OS-Nuc cell line = experiment: Live cell imaging, pilot experiment; format: cell-based, human; conditions: 10 µM, 1 h incubation
Experimental: U2OS cell line (ATCC, USA) was transduced with premade lentiviral particles (Vectalis-TaKaRa, Japan) with sequences that express fluorescent protein tag mCherry targeted to specific subcellular locations. All cell lines were prepared according to the vendor’s instructions. The U2OS-Nuc cell line was prepared by using rLV.EF1.mCherry-Nuc-9 (cat. n. 0023VCT), containing a NLS sequence that imports protein into the nucleus. The U2OS-ER cell line was transduced by rLV.EF1.mCherry-ER-9 (cat. n. 0025VCT), which contains a calreticulin signal sequence and a KDEL sequence that associates protein with the endoplasmic reticulum. The U2OS-GA cell line was transduced by rLV.EF1.mCherry-Golgi-9 (cat. n. 0022VCT), containing a human GT precursor, a protein localized in Golgi Apparatus. The U2OS-Mito cell line was prepared by using rLV.EF1.mCherry-Mito-9 (cat. n. 0024VCT), containing a mitochondrial targeting sequence.
U2OS cells with fluorescent fusion proteins (density 1.0 × 10^3 per well) were seeded into 384 CellCarrier plates (Perkin Elmer, Waltham, MA, USA) and pre-incubated for 24 h at 37 °C and 5% CO2. The attached cells were treated with tested compounds in concentration 10 µM for 1 h and subsequently rinsed with fresh media. The live-cell imaging was performed by Cell Voyager CV7000 (Yokogawa, Tokyo, Japan) spinning disc confocal microscopy system at 37 °C in a 5% CO2 atmosphere. Live cells were monitored by a 60 × water immersion objective. The fluorescent signal was excited by lasers (405 nm and 561 nm) and the emission was filtered by bandpass filters (BP 445/45 and BP 595/20). All images were post-processed, and Pearson’s and Mander’s coefficients were calculated using the JACoP plugin in Image-J software.

[5] = Human immunodeficiency virus 1, HEK293, 48 h

SMILES | fraction of proliferating BrDU positive CCRF-CEM cells (in words) (CCRF-CEM lymphoblasts [1]) | RNA synthesis by BrU (in words) (CCRF-CEM lymphoblasts [2]) | pIC50 (CCRF-CEM) | pIC50 (HCT116) | pIC50 (K562-Tax) | pIC50 (A549) | cytotoxic effect in the cell line panel (in words) (entire cell line panel) | pIC50 (CEM-DNR) | pIC50 (BJ) | pIC50 (MRC-5) | CA forms identified in released viruses (CA-SP1 processing) [3] | pIC50 (in vitro) | pIC50 (K562) | pIC50 (HCT116p53−/−) | pIC50 (U2OS) | pIC50 [4, 5] | pIC50 [4] | detection in living cells (U2OS-Nuc cell line)
C=C(C)[C@@H]1CC[C@]2(C(=O)NCCCNC3=C4C=CC=[N+]4[B-](F)(F)n4cccc43)CC[C@]3(C)[C@H](CC[C@@H]4[C@@]5(C)CC[C@H](OC(=O)CC(C)(C)C(=O)O)C(C)(C)[C@@H]5CC[C@]43C)[C@@H]12 [Compound 10, 4-{[(3β)-28-{[N-(4,4-Difluoro-4-bora-3a,4a-diaza-s-indacene-8-yl)-3-aminopropyl]amino}-28-oxolup-20(29)-ene-3-yl]oxy}-2,2-dimethyl-4-oxobutanoic acid] | reduced the fraction of proliferating BrDU positive CCRF-CEM cells | stalled RNA synthesis | 5.53 | 5.10 | 4.91 | 4.87 | medium cytotoxicity | 5.15 | 4.81 | 4.85 | not only fully processed p24 CA, but also p25 CA-SP1 protein | < 4.40 | 4.63 | 5.06 | 4.91 | > 5.00 | 5.08 | –
C=C(C)[C@@H]1CC[C@]2(C(=O)NCCCNC(=O)OC(C)(C)C)CC[C@]3(C)[C@H](CC[C@@H]4[C@@]5(C)CC[C@H](OC(=O)CC(C)(C)C(=O)O)C(C)(C)[C@@H]5CC[C@]43C)[C@@H]12 [Compound 8, 4-{[(3β)-28-({3-[(Tert-butoxycarbonyl)amino]propyl}amino)-28-oxolup-20(29)-ene-3--yl]oxy}-2,2-dimethyl-4-oxobutanoic acid] | reduced the fraction of proliferating BrDU positive CCRF-CEM cells | stalled RNA synthesis | 5.09 | 4.88 | 4.88 | 4.72 | medium cytotoxicity | 5.03 | 4.67 | 4.64 | not only fully processed p24 CA, but also p25 CA-SP1 protein | 4.42 | 4.72 | 4.67 | 4.77 | – | – | –
C=C(C)[C@@H]1CC[C@]2(C(=O)N3CCN(CCN)CC3)CC[C@]3(C)[C@H](CC[C@@H]4[C@@]5(C)CC[C@H](OC(=O)CC(C)(C)C(=O)O)C(C)(C)[C@@H]5CC[C@]43C)[C@@H]12 [Compound 17, 4-{[(3β)-28-[4-(2-Aminoethyl)piperazine-1-yl]-28-oxolup-20(29)-ene-3-yl]oxy}-2,2-dimethyl-4-oxobutanoic acid hydrochloride] | – | stalled RNA synthesis | 5.24 | < 4.30 | < 4.30 | < 4.30 | inactive | < 4.30 | < 4.30 | < 4.30 | not only fully processed p24 CA, but also p25 CA-SP1 protein | < 4.40 | < 4.30 | < 4.30 | 4.35 | > 5.00 | 5.12 | –
NCCCNC1=C2C=CC=[N+]2[B-](F)(F)n2cccc21 [BODIPY-NH2, 8-N-(3-Aminopropyl)amino-4,4-difluoro-4-bora-3a,4a-diaza-s-indacene] | – | – | – | – | – | – | – | – | – | – | – | – | – | – | – | – | – | not detected
C=C(C)[C@@H]1CC[C@]2(C(=O)N3CCN(CCNC4=C5C=CC=[N+]5[B-](F)(F)n5cccc54)CC3)CC[C@]3(C)[C@H](CC[C@@H]4[C@@]5(C)CC[C@H](OC(=O)CC(C)(C)C(=O)O)C(C)(C)[C@@H]5CC[C@]43C)[C@@H]12 [Compound 18, 4-{[(3β)-28-{4-[N-(4,4-Difluoro-4-bora-3a,4a-diaza-s-indacene-8-yl)-2-aminoethyl]piperazine-1-yl}-28-oxolup-20(29)-ene-3-yl]oxy}-2,2-dimethyl-4-oxobutanoic acid] | increased the percentage of cells incorporating BrDU | increased the percentage of BrU positive cells | 5.06 | 4.51 | < 4.30 | 4.32 | inactive | < 4.30 | < 4.30 | < 4.30 | not only fully processed p24 CA, but also p25 CA-SP1 protein | < 4.40 | < 4.30 | 4.34 | < 4.30 | > 5.00 | 5.15 | –

— publication PMC8472287, “Betulinic Acid Decorated with Polar Groups and Blue Emitting BODIPY Dye: Synthesis, Cytotoxicity, Cell-Cycle Analysis and Anti-HIV Profiling” (Biomedicines, 2021)
